# Active and inactive are the calls of the source. No cut-off for these calls is given here. Numbered stars: 1 amine (or outer) side, 2 acyl side, 3 side chain; on linkers, the order of the positions; unused ones are H or OH. Square brackets hold non-standard residues; d marks the D form. Peptide text beside a SMILES is read from it. * marks the point of attachment. cisHyp = O=C(O)[C@@H]1C[C@H](O)CN1; NMeR = CN[C@@H](CCCNC(=N)N)C(=O)O; Hyp = O=C(O)[C@@H]1C[C@@H](O)CN1; Chg = N[C@H](C(=O)O)C1CCCCC1; Phg = N[C@H](C(=O)O)c1ccccc1; Tle = CC(C)(C)[C@H](N)C(=O)O; NMeV = CN[C@H](C(=O)O)C(C)C; αMeP = C[C@@]1(C(=O)O)CCCN1; Pip = O=C(O)[C@@H]1CCCCN1; Ac6c = NC1(C(=O)O)CCCCC1; Ac5c = NC1(C(=O)O)CCCC1; Cbz = O=C(OCc1ccccc1)*; CO = O=C([*:1])[*:2]; Bz = O=C(c1ccccc1)*; NHPh = c1ccc(N*)cc1; CH2F = FC*
# How the values were obtained:
# [1] = test system: OCI-Ly3; experiment: Antiproliferative activity against human OCI-LY3 cells assessed as growth inhibition treated every 48 hrs measured after 96 hrs by CellTiter-Glo assay; type: functional
# [2] = target: T1, Mucosa-associated lymphoid tissue lymphoma translocation protein 1 (Homo sapiens) (UniProt Q9UDY8); experiment: Inhibition of MALT1 (unknown origin) expressed in PMA/IO-stimulated human Raji Glosensor cells by reporter gene assay; type: cell-based
# T1 sequence (whole entry): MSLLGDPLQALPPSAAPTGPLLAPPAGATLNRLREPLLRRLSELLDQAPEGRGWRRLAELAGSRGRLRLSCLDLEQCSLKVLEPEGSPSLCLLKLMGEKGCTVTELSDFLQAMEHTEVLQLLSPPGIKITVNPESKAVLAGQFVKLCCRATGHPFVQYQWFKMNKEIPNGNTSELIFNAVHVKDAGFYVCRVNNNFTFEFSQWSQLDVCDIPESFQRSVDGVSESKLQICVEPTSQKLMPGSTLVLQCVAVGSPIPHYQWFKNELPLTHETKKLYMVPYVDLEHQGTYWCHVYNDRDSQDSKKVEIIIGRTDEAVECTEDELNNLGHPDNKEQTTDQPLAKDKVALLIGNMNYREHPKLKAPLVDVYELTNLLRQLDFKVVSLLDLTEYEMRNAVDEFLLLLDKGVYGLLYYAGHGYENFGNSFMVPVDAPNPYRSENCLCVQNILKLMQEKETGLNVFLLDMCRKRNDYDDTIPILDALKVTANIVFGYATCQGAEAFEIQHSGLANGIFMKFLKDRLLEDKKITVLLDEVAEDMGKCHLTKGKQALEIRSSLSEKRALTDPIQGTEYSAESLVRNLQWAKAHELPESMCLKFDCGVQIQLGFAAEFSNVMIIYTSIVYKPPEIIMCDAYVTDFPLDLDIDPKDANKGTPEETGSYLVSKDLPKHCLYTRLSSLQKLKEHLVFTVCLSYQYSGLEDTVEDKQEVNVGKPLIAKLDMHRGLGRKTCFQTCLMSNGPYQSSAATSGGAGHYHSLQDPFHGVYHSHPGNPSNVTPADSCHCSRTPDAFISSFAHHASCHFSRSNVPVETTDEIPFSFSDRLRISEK
# [3] = target: T2, Mucosa-associated lymphoid tissue lymphoma translocation protein 1 (Homo sapiens, UniProt Q9UDY8); experiment: Inhibition of recombinant LZ-fused MALT1 (340 to 789 residues) (unknown origin) using Ac-LRSR-AMC as substrate by fluorescence assay
# T2 sequence (Q9UDY8 whole entry): T1 sequence (whole entry)
# [4] = test system: OCI-Ly1; experiment: Antiproliferative activity against human OCI-LY1 cells up to 20 uM; type: functional, cell-based
GI50 [1],SMILES,other results
770 nM,CC(C)[C@H](NC(=O)c1ccc(Br)cc1)C(=O)N1CC[C@H]1C(=O)N[C@@H](CCCNC(=N)N)C(=O)CF,
120 nM,CC(C)[C@H](NC(=O)c1ccc(C(F)(F)F)cc1)C(=O)N1CCC[C@H]1C(=O)N[C@@H](CCCNC(=N)N)C(=O)CF,
1240 nM,CC(C)[C@H](NC(=O)c1ccc(Cl)cc1)C(=O)N1CCC[C@H]1C(=O)N[C@@H](CCCNC(=N)N)C(=O)CF,
1520 nM,CC(C)[C@H](NC(=O)Nc1ccccc1)C(=O)N1CCC[C@H]1C(=O)N[C@@H](CCCNC(=N)N)C(=O)CF ({NHPh-CO}-Val-Pro-Arg-CH2F),
730 nM,CC(C)[C@H](NC(=O)OCc1ccccc1)C(=O)N1CCCC[C@H]1C(=O)N[C@@H](CCCNC(=N)N)C(=O)CF (Cbz-Val-[Pip]-Arg-CH2F),
270 nM,CC(C)c1ccc(C(=O)N[C@H](C(=O)N2CCC[C@H]2C(=O)N[C@@H](CCCNC(=N)N)C(=O)CF)C(C)C)cc1,
660 nM,CC(C)[C@H](NC(=O)c1ccccc1)C(=O)N1CCC[C@H]1C(=O)N[C@@H](CCCNC(=N)N)C(=O)CF (Bz-Val-Pro-Arg-CH2F),
530 nM,CC(C)[C@H](NC(=O)c1cccc(Br)c1)C(=O)N1CCC[C@H]1C(=O)N[C@@H](CCCNC(=N)N)C(=O)CF,
2440 nM,CC[C@H](C)[C@H](NC(=O)OCc1ccccc1)C(=O)N1CCC[C@H]1C(=O)N[C@@H](CCCNC(=N)N)C(=O)CF (Cbz-Ile-Pro-Arg-CH2F),
> 20000 nM,CC(C)[C@H](NC(=O)c1ccc(Br)cc1)C(=O)N1CCC[C@@H]1C(=O)N[C@@H](CCCNC(=N)N)C(=O)CF,IC50 [2]: 17500 nM
1670 nM,COc1ccc(C(=O)N[C@H](C(=O)N2CCC[C@H]2C(=O)N[C@@H](CCCNC(=N)N)C(=O)CF)C(C)C)cc1,
5490 nM,CC(C)C[C@H](NC(=O)OCc1ccccc1)C(=O)N1CCC[C@H]1C(=O)N[C@@H](CCCNC(=N)N)C(=O)CF (Cbz-Leu-Pro-Arg-CH2F),
8520 nM,CC(C)[C@H](NC(=O)OCc1ccccc1)C(=O)N1CCC[C@H]1C(=O)N[C@@H](CCCNC(=N)N)C(=O)CF (Cbz-Val-Pro-Arg-CH2F),Activity [4]: inactive
4240 nM,CC(C)[C@H](NC(=O)c1ccccc1Br)C(=O)N1CCC[C@H]1C(=O)N[C@@H](CCCNC(=N)N)C(=O)CF,
6660 nM,CC(C)[C@H](NC(=O)c1ccc(C#N)cc1)C(=O)N1CCC[C@H]1C(=O)N[C@@H](CCCNC(=N)N)C(=O)CF,

# Continued, compound first:
SMILES,GI50 [1],other results
CC(C)[C@H](NC(=O)c1ccc(Br)cc1)C(=O)N1C[C@H](O)C[C@H]1C(=O)N[C@@H](CCCNC(=N)N)C(=O)CF,70 nM,
N=C(N)NCCC[C@H](NC(=O)[C@@H]1CCCN1C(=O)[C@@H](NC(=O)c1ccc(Br)cc1)C1CCCCC1)C(=O)CF,130 nM,
CC(C)[C@H](NC(=O)OCc1ccccc1)C(=O)N1C[C@H](O)C[C@H]1C(=O)N[C@@H](CCCNC(=N)N)C(=O)CF (Cbz-Val-[Hyp]-Arg-CH2F),290 nM,IC50 [2]: 209 nM
CC(C)[C@H](NC(=O)c1ccc(Br)cc1)C(=O)N1CCOC[C@H]1C(=O)N[C@@H](CCCNC(=N)N)C(=O)CF,460 nM,
N=C(N)NCCC[C@H](NC(=O)[C@@H]1CCCN1C(=O)C1(NC(=O)OCc2ccccc2)CCCCC1)C(=O)CF (Cbz-[Ac6c]-Pro-Arg-CH2F),6230 nM,
N=C(N)NCCC[C@H](NC(=O)[C@@H]1CCCN1C(=O)[C@H](Cc1ccccc1)NC(=O)OCc1ccccc1)C(=O)CF,2200 nM,
CC(C)[C@H](NC(=O)OCc1ccccc1)C(=O)N1CCC[C@H]1C(=O)N(C)[C@@H](CCCNC(=N)N)C(=O)CF (Cbz-Val-Pro-[NMeR]-CH2F),,Ki [3]: > 5000 nM; Activity [4]: inactive
CC(C)(C)[C@H](NC(=O)OCc1ccccc1)C(=O)N1CCC[C@H]1C(=O)N[C@@H](CCCNC(=N)N)C(=O)CF (Cbz-[Tle]-Pro-Arg-CH2F),1440 nM,
CC(C)[C@H](NC(=O)Nc1ccc(Cl)cc1)C(=O)N1CCC[C@H]1C(=O)N[C@@H](CCCNC(=N)N)C(=O)CF,780 nM,
N=C(N)NCCC[C@H](NC(=O)[C@@H]1CCCN1C(=O)[C@@H](NC(=O)OCc1ccccc1)c1ccccc1)C(=O)CF (Cbz-[Phg]-Pro-Arg-CH2F),8050 nM,
N=C(N)NCCC[C@H](NC(=O)[C@@H]1CCCN1C(=O)[C@@H](NC(=O)OCc1ccccc1)C1CCCCC1)C(=O)CF (Cbz-[Chg]-Pro-Arg-CH2F),1450 nM,
CC(C)C[C@H](NC(=O)OCc1ccccc1)C(=O)N[C@H](C(=O)N1CCC[C@H]1C(=O)N[C@@H](CCCNC(=N)N)C(=O)CF)C(C)C (Cbz-LVPR-CH2F),1050 nM,Ki [3]: 90 nM; Activity [4]: inactive
CC(C)[C@H](NC(=O)c1ccc(Br)cc1)C(=O)N1COC[C@H]1C(=O)N[C@@H](CCCNC(=N)N)C(=O)CF,120 nM,
CN[C@H](C(=O)N1CCC[C@H]1C(=O)N[C@@H](CCCNC(=N)N)C(=O)CF)C(C)C (H-[NMeV]-Pro-Arg-CH2F),> 20000 nM,Ki [3]: > 200 nM; Activity [4]: inactive
N=C(N)NCCC[C@H](NC(=O)[C@H](CO)NC(=O)[C@@H](NC(=O)c1ccc(Br)cc1)C1CCCCC1)C(=O)CF,240 nM,
CC(C)[C@@H](C(=O)N1CCC[C@H]1C(=O)N[C@@H](CCCNC(=N)N)C(=O)CF)N(C)C(=O)OCc1ccccc1 (Cbz-[NMeV]-Pro-Arg-CH2F),> 20000 nM,Activity [4]: inactive
CC(C)[C@H](NC(=O)OCc1ccccc1)C(=O)N1CCC[C@@]1(C)C(=O)N[C@@H](CCCNC(=N)N)C(=O)CF (Cbz-Val-[αMeP]-Arg-CH2F),10500 nM,
CC(C)[C@H](NC(=O)OCc1ccccc1)C(=O)N[C@@H](CCCNC(=N)N)C(=O)N1CCC[C@H]1C(=O)N[C@@H](CCCNC(=N)N)C(=O)CF,8220 nM,Ki [3]: 140 nM; Activity [4]: inactive
CC(C)[C@H](NC(=O)C1CCCCC1)C(=O)N1CCC[C@H]1C(=O)N[C@@H](CCCNC(=N)N)C(=O)CF,940 nM,
CC(C)[C@H](NC(=O)OCc1ccccc1)C(=O)N1C[C@@H](O)C[C@H]1C(=O)N[C@@H](CCCNC(=N)N)C(=O)CF (Cbz-Val-[cisHyp]-Arg-CH2F),1070 nM,IC50 [2]: 239 nM
N=C(N)NCCC[C@H](NC(=O)[C@@H]1CCCN1C(=O)C1(NC(=O)OCc2ccccc2)CCCC1)C(=O)CF (Cbz-[Ac5c]-Pro-Arg-CH2F),4310 nM,
CC(C)[C@H](NC(=O)OCc1ccccc1)C(=O)N[C@@H](CO)C(=O)N[C@@H](CCCNC(=N)N)C(=O)CF,290 nM,
N=C(N)NCCC[C@H](NC(=O)[C@@H]1C[C@@H](O)CN1C(=O)[C@@H](NC(=O)c1ccc(Br)cc1)C1CCCCC1)C(=O)CF,60 nM,
